Results as given in the NIST ThermoML archive (doi:10.1016/j.jct.2012.03.005).
Numbers after ± are expanded uncertainties.

Assays:
[1] = 101.33 kPa, Liquid, Vibrating tube method
[2] = activity coefficient (dimensionless); of the first substance listed, at infinite dilution; xn = mol fraction of the nth substance listed; conditions: 101 kPa, Liquid, Chromatography, x1 = 0

Structure (SMILES)	mass density ([1]; 298.15 K)	mass density ([1]; 308.15 K)	mass density ([1]; 318.15 K)	mass density ([1]; 328.15 K)	mass density ([1]; 338.15 K)	mass density ([1]; 348.15 K)	mass density ([1]; 358.15 K)	activity coefficient ([2]; 308.15 K)	activity coefficient ([2]; 318.15 K)	activity coefficient ([2]; 328.15 K)	activity coefficient ([2]; 338.15 K)	activity coefficient ([2]; 348.15 K)	activity coefficient ([2]; 358.15 K)
CCn1cc[n+](C)c1.CS(=O)(=O)[O-] [1-ethyl-3-methylimidazolium methanesulfonate]	1239.96 ± 0.43 kg/m3	1233.22 ± 0.42 kg/m3	1226.51 ± 0.42 kg/m3	1219.84 ± 0.41 kg/m3	1213.2 ± 0.41 kg/m3	1206.63 ± 0.4 kg/m3	1200.08 ± 0.4 kg/m3						
c1ccccc1 [benzene] + CCn1cc[n+](C)c1.CS(=O)(=O)[O-]								308 ± 21	318 ± 22	328 ± 23	338 ± 23	348 ± 24	358 ± 25
CCCCCCC [heptane] + CCn1cc[n+](C)c1.CS(=O)(=O)[O-]								378 ± 26	328 ± 23	273 ± 19	244 ± 17		
C1COCCO1 [1,4-dioxane] + CCn1cc[n+](C)c1.CS(=O)(=O)[O-]								2.6 ± 0.18	2.63 ± 0.18	2.67 ± 0.18	2.69 ± 0.18	2.72 ± 0.19	2.73 ± 0.19
CCCOCCC [dipropyl ether] + CCn1cc[n+](C)c1.CS(=O)(=O)[O-]								80.3 ± 5.5	72.7 ± 5	67.5 ± 4.6	62.8 ± 4.3	58.1 ± 4	
